From patent publication US11266701B2, “Synergistic combinations of caffeine, ginkgo biloba and beta-phenylethylamine” (TRINUTRA LTD., priority 2016, dated 2022)

Tested on: murine macrophage cell line, RAW 264.7
Experiment: Nitric oxide (NO) release from LPS-induced RAW 264.7 cells (Griess Reagent System)
Format: cell-based
Description: 10^5 cells from a murine macrophage cell line, RAW 264.7, were seeded in 96-well plates in a medium containing 1% FBS, 1% Glutamine and 1% Pen/strep in DMEM. […] In addition, positive control cells were treated with 20 μM dexamethasone. Nitric oxide (NO) release was tested after incubation at 37° C., 5% CO2 using the Griess Reagent System. The method is based on the chemical diazotization reaction that was originally described by Griess in 1879, which uses sulfanilamide and N-1-napthylethylenediamine dihydrochloride (NED) under acidic (phosphoric acid) conditions. This system detects NO2^− in a variety of biological and experimental liquid matrices such as tissue culture medium that was tested in this study.

Compound | NO release as % of LPS-only negative control (FIG. 1: 240 μg/ml Ginkgo biloba, 500 μg/ml PEA, tested separately, LPS 5 ng/ml, 22 hours) [%] | NO release as % of LPS-only negative control (FIG. 2: 240 μg/ml Ginkgo biloba, 120 μg/ml PEA, tested separately, LPS 5 ng/ml, 22 hours) [%] | reduction in NO release (FIG. 3: 630 μg/ml PEA alone, C+G+P = 390 μg/ml caffeine + 40 μg/ml Ginkgo biloba + 630 μg/ml PEA) [%] | effect on NO release (FIG. 4: 630 μg/ml PEA alone, binary combination 390 μg/ml caffeine + 630 μg/ml PEA) | NO release inhibition (FIG. 5: 40 μg/ml Ginkgo biloba, 630 μg/ml PEA, separately and as binary combination) | effect on NO release compared with dexamethasone positive control (FIGS. 3-6: 390 μg/ml caffeine, 40 μg/ml Ginkgo biloba, 630 μg/ml PEA) | effect on NO release (FIG. 1: 40 μg/ml caffeine tested separately, LPS 5 ng/ml, 22 hours) | effect on NO release (FIG. 2: 40 μg/ml caffeine tested separately, LPS 5 ng/ml, 22 hours) | effect on NO release (FIG. 3: 390 μg/ml caffeine, 40 μg/ml Ginkgo biloba, tested separately)
NCCc1ccccc1 [PEA, β-phenylethylamine] | ~85 | 95 | 20 | significant reduction | a certain degree of NO release inhibition | considerably less than that seen in the positive control | – | – | –
Cn1c(=O)c2c(ncn2C)n(C)c1=O [caffeine] | – | – | – | – | – | – | essentially without effect | essentially without effect | slight reduction
